Source: US20130345164A1, “TREATMENTS FOR CELLULAR PROLIFERATIVE DISORDERS AND IDENTIFICATION THEREOF” (UNIVERSITY OF MEDICINE AND DENTISTRY OF NEW JERSEY, priority 2010, published 2013)

What was measured:
p21 protein = experiment: Western Blot of p21 protein levels; type: cell-based, human
[1] = tested on: cells carrying p53 mutations; experiment: NCI60 screen Score ranking, p53 mutant case group vs p53 wild-type control group; details: p53 273/248 mutant case group vs p53 wild-type control group; NCI60 data
Description: The Score calculations are carried out by: • (1) calculating a Responsive Fraction, i.e., the fraction of the case cell lines in the Case Group that are responsive to the test treatment; • (2) calculating a Non-Responsive Fraction i.e., the fraction of the control cell lines in the Control Group that are not responsive to the test treatment; and • (3) generating a Score of the test treatment according to Formula I:
Score=the Responsive Fraction×the Non-Responsive Fraction.
Among the NCI60 cell lines, 16 have wild-type p53 and 44 carry a p53 alteration (Ikediobi, O. N., et al., Mol Cancer Ther, 2006. 5(11): p. 2606-12). Mutations at amino acids 273 and 248 are the most frequent, with 5 and 4 cell lines, respectively. Given the abundance of p53 mutations at positions 273 and 248 within the NCI60 cell lines, and their location in the p53-DNA contact, cells carrying these mutations were chosen to form a case group to identify compounds with increased activity in tumors with a mutant p53. On the other hand, cells with a wild-type p53 were chosen to form a control group. The resulting groups are the following:
• Leukemia: CCRF-CEM; • Lung Cancer: NCI-H322M; • Central Nervous System Cancer: SF-295, SF-268, SNB-19, and U251; • Colorectal Cancer: HT29 and SW-620; • Ovarian Cancer: OVCAR-3.
• Breast Cancer: MCF7; • Colorectal Cancer: HCT-116; • Lung Cancer: A549, NCI-H226, and NCI-H460; • Leukemia: SR; • Melanoma: LOXIMVI, MALME-3M, SK-MEL-5, UACC-257, and UACC-62; • Ovarian Cancer: OVCAR-5; • Renal Cancer: A498, ACHN, CAKI-1, and UO-31.
Using the protocols described above, the NCI60 treatment-cell line RG was constructed, taking RS=log10IC50-average(log10IC50) as a relative response sensitivity measurement and computing the average(log10IC50) over all the 60 cell lines. The Case and Control groups listed above were chosen, and the score in Formula I was computed for the 47,624 compounds in the NCI60 screen.

p53 R175H = target: T1, p53 R175H (Homo sapiens, UniProt P04637, R175H); experiment: Immunoprecipitation of TOV112D lysates with mutant specific antibody PAB240; type: cell-based; details: detection with DO-1
T1 construct: one ovarian carcinoma cell line containing a p53^R175H (TOV112D); endogenous in cells; host or cells: TOV112D human ovarian carcinoma cells
Source text: This conformational change was confirmed by immunoprecipitation of lysates from NSC319726-treated TOV112D cells using the mutant specific antibody PAB240. To that end, cell lysates were precipitated with PAB240 and detected with p53 (DO-1) antibody which recognizes all types of p53 protein conformations.

MEF-p53^R172H cells = experiment: Viability assay in 12-well cultures (Guava PCA) in MEF lines of the same strain; type: cell-based, mouse; details: MEF-p53^R172H vs MEF-p53 wild type and MEF-p53 null
Description: The sensitivity was measured in 12-well cultures for viability assay using the Guava PCA instrument following the manufacture protocol.

[2] = tested on: p53 response element (p53RE) in the p21 promoter, MEF cells with exogenous 248 or 273 mutations; experiment: Luciferase reporter assay, p53RE of the p21 promoter; type: cell-based, mouse; details: MEF cell lines expressing the 248 and 273 alleles
Description: (§1) To that end, luciferase activity assays were performed. Briefly, a 20-bp p53 response element (p53RE) was subcloned in the pGL3 vector to generate a luciferase reporter plasmid, which contained 20 base pairs of the p53 response element in the p21 promoter. The sequences of the 5′ site and 3′ site at −2.27 kb and −1.38 kb (SEQ ID NOs: 1 and 3) and their reverse complements (SEQ ID NOs: 2 and 4) are listed below:
(§2) The reporter plasmid was transfected to the TOV112D cells or MEF cells with exogenous 248 or 273 mutations. Cells thus-transfected were treated with NSC319726 and subjected to luciferase assays. […] This effect was not seen in MEF cell lines expressing the 248 and 273 alleles, FIG. 10b.

[3] = tested on: p53 null cell line (SKOV3); experiment: Growth inhibition after silencing of p53 by siRNA; type: cell-based, human
Source text: (§3) In contrast, the sensitivity of the p53 null cell line (SKOV3) was not reduced by the siRNA in a similar fashion.

TOV112D cells = experiment: Growth inhibition after silencing of p53 by siRNA; type: cell-based, human; details: p53^R175H silenced by siRNA
Source text: as §3

[4] = tested on: p53 targets (p21, PUMA, and MDM2); experiment: Quantitative real-time PCR of p53 targets; type: cell-based, human; details: TOV112D cells, treated vs untreated, normalized with actin
Description: (§4) Each treatment had three independent repeats (labeled as 1, 2, and 3); (e) Comparison of the p53 expression signatures of 319726 treated cells with that of p53 wild type, p53 null and p53R175H cell lines in response to gamma-irradiation.
Assays were carried out to compare the mRNA levels of several p53 targets (p21, PUMA, and MDM2) in the TOV112D (p53R175H), OVCAR3 (p53R248W) and SKOV3 (p53 null) upon treatment with the compounds. The relative gene expression level was normalized with the actin and the ratio of the treated level vs. untreated level was shown for each cell line.

[5] = tested on: TOV112D-p53R175H, OVCAR3-p53 R248W and SKOV3-p53 null; experiment: Apoptosis by Annexin V staining in ovarian carcinoma cell lines; type: cell-based, human; details: three ovarian carcinoma cell lines
Source text: (§5) Briefly, apoptosis was examined by Annexin V staining using standard methods.

[6] = tested on: MEF cells with exogenous p53 mutations; experiment: Apoptosis by Annexin V staining in MEF cells; type: cell-based, mouse; details: for induction of apoptosis (Annexin V staining): MEF cells with exogenous p53 mutations
Source text: as §5

p53^R175H mutant protein = target: T2, p53^R175H mutant protein (Homo sapiens, UniProt P04637, R175H); experiment: Immuno-fluorescent staining with conformation-specific antibodies (PAB1620, PAB240, PAB1801) in TOV112D; type: cell-based
T2 construct: one ovarian carcinoma cell line containing a p53^R175H (TOV112D); endogenous in cells; host or cells: TOV112D human ovarian carcinoma cells
Source text: Conformational change to wild type in TOV112D (p53R175H) was studied by immuno-fluorescent staining.

[7] = tested on: p53^R172H/R172H mice tissues; experiment: Cleaved Caspase-3 immuno-staining and quantitative-PCR of p53 targets in mouse tissues; type: in vivo
[8] = tested on: TOV112D (p53^R175H) ovarian carcinoma cell line; experiment: Sensitivity of human tumor cell line system; type: cell-based; details: 0.1 μM to 10 μM
Source text: Five tumor cell lines with endogenous […] mutations were compared, including two cell lines containing R248W mutations and three cell lines with a R273H mutation.

[9] = Toxicity assays in p53 wild type, p53 null and p53^R172H mice; type: in vivo; details: for survival by day 4: 10 mg/kg intraperitoneally daily; for survival by day seven: 5 mg/kg
Description: Toxicity assays were performed in p53 wild type, p53 null, and p53^R172H mice to determine if in vivo p53 mutant synthetic lethality could be detected.
First, three groups of mice: […], p53^+/R172H/R172H mice, were compared.
Next, the dose was lowered to 5 mg/kg and three groups of mice (p53 wild type, p53 null, and p53^R172H/R172H) were compared.

panel of p53 targets = experiment: Microarray analysis of p53 target genes in TOV112D cells; type: cell-based, human; details: TOV112D vs untreated controls
Source text: as §4
To examine the transcriptional activity of the NSC319725 and […]-treated cells on a larger scale, microarrays were used to analyze control- and compound-treated TOV112D cells.

[10] = tested on: murine fibroblast cell line 3T3 (p53 wild type control); experiment: Growth inhibition assay on isogenic murine fibroblast lines (96-well MTS); type: cell-based; details: FIG. 5c
Description: (§6) None of these compounds have been previously reported for their selective activity in cells with a mutant p53. To provide further evidence for their specificity, growth inhibition assays were performed on isogenic cell lines. Previously developed murine fibroblast cell line (10)3 (p53 null) and 10(3) with transfection of cytomegalovirus-human mutant p53 constructs (273, 248 and 175) (Dittmer, D., et al., Nature Genetics, 1993. 4(1): p. 42-6) were used as cases, while the murine fibroblast cell line 3T3 was used as a p53 wild type control.
(§7) The compounds were validated using several different cell line systems. The first system used was a mouse embryonic fibroblast (MEF) system in which a p53 null MEF line, 10(3), was used as a parental line from which several stable CMV-mutant p53 transfectants were derived. The p53 mutations investigated were the “hot spot” mutants 175, 248, and 273. NIH3T3 fibroblasts were used as a p53 wild type control.

[11] = tested on: 10(3) cells with human mutant p53 construct 273; experiment: as above; type: cell-based; details: cells with mutation p53^273
Description: as §6, §7

[12] = tested on: murine fibroblast cell line (10)3 (p53 null); experiment: as above; type: cell-based; details: p53^null cells
Description: as §6, §7

[13] = tested on: 10(3) cells with human mutant p53 construct 175; experiment: as above; type: cell-based
Description: as §6, §7

[14] = tested on: 10(3) cells with human mutant p53 construct 248; experiment: as above; type: cell-based; details: cells with mutation p53^248
Description: as §6, §7

[15] = tested on: H460-p53 wildtype, MDAMB468-p53^R273H, HCT116-p53 null and TOV112D-p53^R175H xenograft tumors; experiment: Mouse xenograft tumor growth; type: in vivo; details: 1 μg/g intravenously once daily vs control
[16] = tested on: p53 wild type cell lines (H460, HCT116, MCF7 and WI38); experiment: Sensitivity of human tumor cell line system; type: cell-based; details: 0.1 μM to 10 μM
[17] = tested on: p53 response element (p53RE) in the p21 promoter, TOV112D cells; experiment: Luciferase reporter assay, p53RE of the p21 promoter; type: cell-based, human
Description: as §1, §2

[18] = cells carrying the p53^173 mutation (so in the source)

## COc1cc([C@@H]2c3cc4c(cc3[C@@H](O[C@@H]3O[C@@H]5CO[C@@H](C)O[C@H]5[C@H](O)[C@H]3O)[C@H]3COC(=O)[C@H]23)OCO4)cc(OC)c1O [Etoposide, reference compound]
p21 protein; TOV112D (p53R175H)
  p21 induction (Western blot): failed to induce p21

## CC(=O)c1ccc2c(c1)c1c(C)c3c[n+](C)ccc3c(C)c1n2C.[I-] [NSC612941]
[1]
  Score (Formula I): 0.55

## Cc1ccc(S(=O)(=O)O)cc1.Cn1c2ccccc2n2c3ccccc3c3nnc(N)c-3c12 [NSC694266]
[1]
  Score (Formula I): 0.50

## CC1=CC(=C(c2ccc(N)cc2)c2ccc(N)cc2)C=CC1=N.Cl [NSC93739]
[1]
  Score (Formula I): 0.50

## COc1ccc2c(c1)c1c(C)c3c[n+](C)ccc3c(C)c1n2C [NSC155694]
[1]
  Score (Formula I): 0.55

## C/C(=N\NC(=S)N1CCC1)c1ccccn1 [NSC319726]
p21 protein; TOV112D (p53R175H)
  p21 induction (Western blot): induced p21
p53 R175H
  amount of p53 R175H immunoprecipitated by mutant specific antibody PAB240: greatly reduced
MEF-p53^R172H cells
  sensitivity compared to p53 wild type and p53 null controls: much higher sensitivity
[2]
  increase in luciferase activity: not seen
[3]
  change of sensitivity on p53 siRNA: not reduced
TOV112D cells
  change of sensitivity on p53 siRNA: reduced by four-fold
[4]
  induction of mRNA of p53 targets p21, PUMA, MDM2: induced all three targets
[5]
  induction of apoptosis (Annexin V staining): induction of apoptosis in all three
[6]; (10)3/175 compared with other MEF lines
  apoptosis response of (10)3/175: strongest apoptosis response
[6]
  induction of apoptosis (Annexin V staining): induced apoptosis
p53^R175H mutant protein
  conformational change of p53^R175H (recognised by PAB1620, no longer by PAB240): induced a change in conformation
[7]; p53^R172H/R172H mice vs wild type controls, 24 hours treatment
  cleaved Caspase-3 immuno-stained cells in spleen and thymus: abundantly more cleaved Caspase-3 immuno-stained cells
[7]; p53^R172H/R172H mice vs wild type, lung, spleen, thymus, small intestine, 24 hours
  mRNA levels of p53 targets in tissues: Elevated mRNA levels
[8]
  sensitivity: marked sensitivity
[9]; mouse, in vivo, ip, 10 mg/kg
  mice alive by day seven: approximately 40%
[9]; p53^+/R172H mice
  survival by day 4: 30%
[9]; p53^R172H/R172H mice
  survival by day seven: 30%
[9]; p53 null mice
  survival by day seven: 100%
[9]; p53 wild type mice
  survival by day seven: 100%
  survival by day 4: 70%
Panel of p53 targets
  transcriptional levels of panel of p53 targets (microarray): induced a large proportion of these genes
[10]
  IC50: not even reached
[11]
  IC50: ~100 nM
[12]
  IC50: ~100 nM
[13]; 175 mutant, FIG. 5c
  IC50: 8 nM
[13]; [18]
  IC50: ~10 nM
[14]
  IC50: ~100 nM
[15]
  xenograft tumor growth inhibition: inhibited mouse xenograft tumor growth in an allele specific mutant p53 dependent manner
[16]
  sensitivity: relative lack of sensitivity
[1]
  Score (Formula I): 0.52
[17]
  increase in luciferase activity: 2.5 fold

## CC(=NNC(=S)N(C)C)c1ccccn1 [NSC319725]
p21 protein; SKOV3 (p53 null)
  p21 induction (Western blot): did induce p21
p21 protein; TOV112D (p53R175H)
  p21 induction (Western blot): did not induce p21
p53 R175H
  amount of p53 R175H immunoprecipitated by mutant specific antibody PAB240: not
[4]
  induction of mRNA of p53 targets p21, PUMA, MDM2: no such effect
[6]
  induction of apoptosis (Annexin V staining): did not induce apoptosis
[11]
  IC50: ~100 nM
[12]
  IC50: ~100 nM
[13]; [18]
  IC50: ~10 nM
[14]
  IC50: ~100 nM
[1]
  Score (Formula I): 0.50
